Measured values from ChEMBL document CHEMBL1201862, “PubChem BioAssay data set” (2004).
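Tested at 5 concentrations; 48 h exposure; 96-well plates; endpoints linearly interpolated, else capped at highest concentration. GI50: concentration for 50% inhibition of growth.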 Calls of active or inactive are those of the source. No stated cut-off is given here; in the data, active = GI50 up to about 1.1 µM and inactive = higher.

Legend:
Assay in all cases: DTP human tumour cell line panel, 48 h
786-0 = tested on: 786-0
A498 = tested on: A498
A549 = tested on: A549
ACHN = tested on: ACHN
BT-549 = tested on: BT-549
CAKI-1 = tested on: CAKI-1
CCRF-CEM = tested on: CCRF-CEM
COLO 205 = tested on: COLO 205
DU-145 = tested on: DU-145
EKVX = tested on: EKVX
HCC 2998 = tested on: HCC 2998
HCT-116 = tested on: HCT-116
HCT-15 = tested on: HCT-15
HL-60 = tested on: HL-60
HOP-62 = tested on: HOP-62
HT-29 = tested on: HT-29
Hs-578T = tested on: Hs-578T
IGROV-1 = tested on: IGROV-1
K562 = tested on: K562
KM12 = tested on: KM12
LOX IMVI = tested on: LOX IMVI
M14 = tested on: M14
MCF7 = tested on: MCF7
MDA-MB-231 = tested on: MDA-MB-231
MDA-MB-435 = tested on: MDA-MB-435
MDA-N = tested on: MDA-N
MOLT-4 = tested on: MOLT-4
Malme-3M = tested on: Malme-3M
NCI-H226 = tested on: NCI-H226
NCI-H23 = tested on: NCI-H23
NCI-H460 = tested on: NCI-H460
NCI-H522 = tested on: NCI-H522
NCI/ADR-RES = tested on: NCI/ADR-RES
OVCAR-3 = tested on: OVCAR-3
OVCAR-4 = tested on: OVCAR-4
OVCAR-5 = tested on: OVCAR-5
OVCAR-8 = tested on: OVCAR-8
PC-3 = tested on: PC-3
RPMI-8226 = tested on: RPMI-8226
RXF 393 = tested on: RXF 393
SF-268 = tested on: SF-268
SF-295 = tested on: SF-295
SF-539 = tested on: SF-539
SK-MEL-28 = tested on: SK-MEL-28
SK-MEL-2 = tested on: SK-MEL-2
SK-MEL-5 = tested on: SK-MEL-5
SK-OV-3 = tested on: SK-OV-3
SN12C = tested on: SN12C
SNB-19 = tested on: SNB-19
SNB-75 = tested on: SNB-75
SR = tested on: SR
SW-620 = tested on: SW-620
T47D = tested on: T47D
TK-10 = tested on: TK-10
U-251 = tested on: U-251
UACC-257 = tested on: UACC-257
UACC-62 = tested on: UACC-62
UO-31 = tested on: UO-31

Cc1cccc2c1c(=O)c1c(O)c3c(cc1n2C)OC(C)(C)C=C3
GI50 (786-0): > 10 µM (inactive) | GI50 (A498): > 10 µM (inactive) | GI50 (A549): > 10 µM (inactive) | GI50 (ACHN): > 10 µM (inactive) | GI50 (BT-549): > 10 µM (inactive) | GI50 (CAKI-1): > 10 µM (inactive) | GI50 (CCRF-CEM): > 10 µM (inactive) | GI50 (COLO 205): > 10 µM (inactive) | GI50 (DU-145): > 10 µM (inactive) | GI50 (EKVX): > 10 µM (inactive) | GI50 (HCC 2998): > 10 µM (inactive) | GI50 (HCT-116): > 10 µM (inactive) | GI50 (HCT-15): > 10 µM | GI50 (HL-60): > 10 µM (inactive) | GI50 (HOP-62): > 10 µM (inactive) | GI50 (HT-29): 3.59 µM (inactive) | GI50 (Hs-578T): > 10 µM (inactive) | GI50 (IGROV-1): > 10 µM (inactive) | GI50 (K562): > 10 µM (inactive) | GI50 (KM12): > 10 µM (inactive) | GI50 (LOX IMVI): > 10 µM (inactive) | GI50 (M14): > 10 µM (inactive) | GI50 (MCF7): 6.15 µM (inactive) | GI50 (MDA-MB-231): > 10 µM (inactive) | GI50 (MDA-MB-435): > 10 µM (inactive) | GI50 (MDA-N): > 10 µM (inactive) | GI50 (MOLT-4): > 10 µM (inactive) | GI50 (Malme-3M): > 10 µM (inactive) | GI50 (NCI-H226): 6.46 µM (inactive) | GI50 (NCI-H23): > 10 µM (inactive) | GI50 (NCI-H460): > 10 µM (inactive) | GI50 (NCI-H522): > 10 µM (inactive) | GI50 (NCI/ADR-RES): > 10 µM (inactive) | GI50 (OVCAR-3): > 10 µM (inactive) | GI50 (OVCAR-4): > 10 µM (inactive) | GI50 (OVCAR-5): > 10 µM (inactive) | GI50 (OVCAR-8): > 10 µM (inactive) | GI50 (PC-3): > 10 µM (inactive) | GI50 (RPMI-8226): > 10 µM (inactive) | GI50 (RXF 393): > 10 µM (inactive) | GI50 (SF-268): > 10 µM (inactive) | GI50 (SF-295): > 10 µM (inactive) | GI50 (SF-539): > 10 µM (inactive) | GI50 (SK-MEL-28): > 10 µM (inactive) | GI50 (SK-MEL-2): > 10 µM (inactive) | GI50 (SK-MEL-5): > 10 µM (inactive) | GI50 (SK-OV-3): > 10 µM (inactive) | GI50 (SN12C): > 10 µM (inactive) | GI50 (SNB-19): > 10 µM (inactive) | GI50 (SNB-75): > 10 µM (inactive) | GI50 (SR): 9.53 µM (inactive) | GI50 (SW-620): > 10 µM (inactive) | GI50 (T47D): > 10 µM (inactive) | GI50 (TK-10): > 10 µM (inactive) | GI50 (U-251): > 10 µM (inactive) | GI50 (UACC-257): > 10 µM (inactive) | GI50 (UACC-62): > 10 µM (inactive)

S=C1Nc2cnc3ccccc3c2SC1c1ccccc1 (centres undefined)
GI50 (786-0): > 100 µM (inactive) | GI50 (A549): > 100 µM (inactive) | GI50 (ACHN): > 100 µM (inactive) | GI50 (BT-549): > 100 µM (inactive) | GI50 (CAKI-1): > 100 µM (inactive) | GI50 (COLO 205): > 100 µM (inactive) | GI50 (DU-145): > 100 µM (inactive) | GI50 (EKVX): > 100 µM (inactive) | GI50 (HCT-116): > 100 µM (inactive) | GI50 (HCT-15): > 100 µM | GI50 (HL-60): > 100 µM (inactive) | GI50 (HOP-62): 42.9 µM (inactive) | GI50 (HT-29): > 100 µM (inactive) | GI50 (Hs-578T): 49.9 µM (inactive) | GI50 (IGROV-1): > 100 µM (inactive) | GI50 (K562): > 100 µM (inactive) | GI50 (KM12): > 100 µM (inactive) | GI50 (LOX IMVI): 97.5 µM (inactive) | GI50 (M14): > 100 µM (inactive) | GI50 (MCF7): > 100 µM (inactive) | GI50 (MDA-MB-231): > 100 µM (inactive) | GI50 (MDA-MB-435): 83.4 µM (inactive) | GI50 (MDA-N): > 100 µM (inactive) | GI50 (MOLT-4): > 100 µM (inactive) | GI50 (Malme-3M): > 100 µM (inactive) | GI50 (NCI-H226): > 100 µM (inactive) | GI50 (NCI-H23): 96.4 µM (inactive) | GI50 (NCI-H460): > 100 µM (inactive) | GI50 (NCI-H522): > 100 µM (inactive) | GI50 (NCI/ADR-RES): > 100 µM (inactive) | GI50 (OVCAR-3): > 100 µM (inactive) | GI50 (OVCAR-4): > 100 µM (inactive) | GI50 (OVCAR-5): > 100 µM (inactive) | GI50 (OVCAR-8): > 100 µM (inactive) | GI50 (PC-3): > 100 µM (inactive) | GI50 (RPMI-8226): > 100 µM (inactive) | GI50 (RXF 393): 13 µM (inactive) | GI50 (SF-268): > 100 µM (inactive) | GI50 (SF-295): 61.7 µM (inactive) | GI50 (SK-MEL-28): 92.3 µM (inactive) | GI50 (SK-MEL-5): > 100 µM (inactive) | GI50 (SK-OV-3): 72.8 µM (inactive) | GI50 (SN12C): > 100 µM (inactive) | GI50 (SNB-19): > 100 µM (inactive) | GI50 (SNB-75): 28.4 µM (inactive) | GI50 (SR): > 100 µM (inactive) | GI50 (T47D): > 100 µM (inactive) | GI50 (TK-10): > 100 µM (inactive) | GI50 (U-251): > 100 µM (inactive) | GI50 (UACC-257): > 100 µM (inactive) | GI50 (UACC-62): > 100 µM (inactive) | GI50 (UO-31): > 100 µM (inactive)
